Measured values: the OligoGym collection
Values joined by “and” are separate entries in the source; they are usually repeats but may differ in a detail not shown here. Equal entries are not always repeated. HELM strings list units from the 5' end as sugar, base in round brackets, then linkage (d deoxyribose, r ribose, m 2'-O-methyl, p phosphodiester). Methylation of C is not given here. [moe] = 2'-O-(2-methoxyethyl) (MOE); [cEt] = constrained ethyl (cEt); [sp] = phosphorothioate linkage

Biological target: HBV
Conditions: ASO

Row | Substance | target mRNA inhibition (HepG2, 0.07 µM) | further results
1 | RNA1{[moe](A)[sp].[cEt](T)[sp].d(T)[sp].d(T)[sp].d(A)[sp].d(T)[sp].d(G)[sp].d(C)[sp].d(C)[sp].d(T)[sp].d(A)[sp].d(C)[sp].[cEt](A)[sp].[moe](G)[sp].[cEt](C)[sp].[moe](C)}$$$$V2.0 | 44% and 52% | 
2 | RNA1{[moe](A)[sp].[moe](A)[sp].[moe](G)[sp].[moe](C)[sp].[moe](G)[sp].d(A)[sp].d(A)[sp].d(G)[sp].d(T)[sp].d(G)[sp].d(C)[sp].d(A)[sp].d(C)[sp].d(A)[sp].[moe](C)[sp].[moe](G)[sp].[moe](G)}$$$$V2.0 | 77% and 76% | target mRNA inhibition (HepG2, 0.0092593 µM): 8%; target mRNA inhibition (HepG2, 0.0277778 µM): 26%; target mRNA inhibition (HepG2, 0.0833333 µM): 62%; target mRNA inhibition (HepG2, 0.25 µM): 85%
3 | RNA1{[moe](C)[sp].[cEt](C)[sp].[cEt](A)[sp].d(C)[sp].d(G)[sp].d(A)[sp].d(G)[sp].d(T)[sp].d(C)[sp].d(T)[sp].d(A)[sp].d(G)[sp].d(A)[sp].[cEt](C)[sp].[cEt](T)[sp].[moe](C)}$$$$V2.0 | 0% | 
4 | RNA1{[moe](T)[sp].[cEt](C)[sp].[cEt](A)[sp].d(G)[sp].d(C)[sp].d(A)[sp].d(A)[sp].d(A)[sp].d(C)[sp].d(A)[sp].d(C)[sp].d(T)[sp].d(T)[sp].[cEt](G)[sp].[cEt](G)[sp].[moe](C)}$$$$V2.0 | 67% and 71% | 
5 | RNA1{[moe](A)[sp].[moe](A)[sp].[moe](C)[sp].d(C)[sp].d(A)[sp].d(C)[sp].d(T)[sp].d(G)[sp].d(A)[sp].d(A)[sp].d(C)[sp].d(A)[sp].d(A)[sp].[cEt](A)[sp].[cEt](T)[sp].[cEt](G)}$$$$V2.0 | 41% and 38% | 
6 | RNA1{[moe](C)[sp].[moe](T)[sp].[moe](G)[sp].[moe](G)[sp].d(A)[sp].d(G)[sp].d(C)[sp].d(C)[sp].d(A)[sp].d(C)[sp].d(C)[sp].d(A)[sp].d(G)[sp].[moe](C)[sp].[moe](A)[sp].[moe](G)[sp].[moe](G)}$$$$V2.0 | 79% and 76% | target mRNA inhibition (HepG2, 0.0092593 µM): 0%; target mRNA inhibition (HepG2, 0.0277778 µM): 24%; target mRNA inhibition (HepG2, 0.0833333 µM): 65%; target mRNA inhibition (HepG2, 0.25 µM): 79%
7 | RNA1{[moe](C)[sp].[cEt](G)[sp].[cEt](A)[sp].d(A)[sp].d(C)[sp].d(C)[sp].d(A)[sp].d(C)[sp].d(T)[sp].d(G)[sp].d(A)[sp].d(A)[sp].d(C)[sp].[cEt](A)[sp].[cEt](A)[sp].[moe](A)}$$$$V2.0 | 64% and 48% | 
8 | RNA1{[moe](C)[sp].[moe](A)[sp].[moe](C)[sp].d(T)[sp].d(A)[sp].d(G)[sp].d(T)[sp].d(A)[sp].d(A)[sp].d(A)[sp].d(C)[sp].d(T)[sp].[moe](G)[sp].[moe](A)[sp].[moe](G)[sp].[moe](C)}$$$$V2.0 | 14% and 4% | 
9 | RNA1{[moe](G)[sp].[moe](G)[sp].[moe](T)[sp].[moe](G)[sp].d(A)[sp].d(A)[sp].d(G)[sp].d(C)[sp].d(G)[sp].d(A)[sp].d(A)[sp].d(G)[sp].d(T)[sp].[moe](G)[sp].[moe](C)[sp].[moe](A)}$$$$V2.0 | 55% and 59% | 
10 | RNA1{[moe](A)[sp].[cEt](G)[sp].d(A)[sp].d(G)[sp].d(G)[sp].d(T)[sp].d(G)[sp].d(A)[sp].d(A)[sp].d(G)[sp].d(C)[sp].d(G)[sp].[cEt](A)[sp].[moe](A)[sp].[cEt](G)[sp].[moe](T)}$$$$V2.0 | 63% and 76% | 
11 | RNA1{[moe](G)[sp].[moe](A)[sp].[moe](A)[sp].[moe](G)[sp].[moe](T)[sp].[moe](C)[sp].d(C)[sp].d(A)[sp].d(C)[sp].d(C)[sp].d(A)[sp].d(C)[sp].d(G)[sp].d(A)[sp].d(G)[sp].[moe](T)[sp].[moe](C)}$$$$V2.0 | 42% | 
12 | RNA1{[moe](G)[sp].[moe](A)[sp].[moe](G)[sp].d(T)[sp].d(T)[sp].d(C)[sp].d(C)[sp].d(G)[sp].d(C)[sp].d(A)[sp].d(G)[sp].d(T)[sp].d(A)[sp].[cEt](T)[sp].[cEt](G)[sp].[cEt](G)}$$$$V2.0 | 70% and 62% | 
13 | RNA1{[moe](G)[sp].[moe](G)[sp].d(A)[sp].d(G)[sp].d(T)[sp].d(T)[sp].d(C)[sp].d(C)[sp].d(G)[sp].d(C)[sp].d(A)[sp].[moe](G)[sp].[moe](T)[sp].[moe](A)[sp].[moe](T)[sp].[moe](G)}$$$$V2.0 | 67% and 45% | 
14 | RNA1{[moe](C)[sp].[cEt](G)[sp].[cEt](C)[sp].d(A)[sp].d(G)[sp].d(T)[sp].d(A)[sp].d(T)[sp].d(G)[sp].d(G)[sp].d(A)[sp].d(T)[sp].d(C)[sp].[cEt](G)[sp].[cEt](G)[sp].[moe](C)}$$$$V2.0 | 81% and 78% | 
15 | RNA1{[moe](A)[sp].[cEt](G)[sp].[cEt](G)[sp].d(C)[sp].d(A)[sp].d(C)[sp].d(A)[sp].d(G)[sp].d(C)[sp].d(T)[sp].d(T)[sp].d(G)[sp].d(G)[sp].[cEt](A)[sp].[cEt](G)[sp].[moe](G)}$$$$V2.0 | 12% and 37% | 
16 | RNA1{[moe](T)[sp].[moe](G)[sp].[moe](A)[sp].[cEt](G)[sp].[cEt](G)[sp].d(C)[sp].d(A)[sp].d(T)[sp].d(A)[sp].d(G)[sp].d(C)[sp].d(A)[sp].[cEt](G)[sp].[cEt](C)[sp].[moe](A)[sp].[moe](G)[sp].[moe](G)}$$$$V2.0 |  | target mRNA inhibition (HepG2, 0.009375 µM): 23%; target mRNA inhibition (HepG2, 0.01875 µM): 4%; target mRNA inhibition (HepG2, 0.0375 µM): 29%; target mRNA inhibition (HepG2, 0.075 µM): 31%; target mRNA inhibition (HepG2, 0.15 µM): 36%; target mRNA inhibition (HepG2, 0.3 µM): 56%
17 | RNA1{[moe](A)[sp].[cEt](C)[sp].d(G)[sp].d(T)[sp].d(G)[sp].d(C)[sp].d(A)[sp].d(G)[sp].d(A)[sp].d(G)[sp].d(G)[sp].d(T)[sp].[cEt](G)[sp].[moe](A)[sp].[cEt](A)[sp].[moe](G)}$$$$V2.0 | 71% and 68% | 
18 | RNA1{[moe](A)[sp].[moe](T)[sp].[moe](G)[sp].[moe](A)[sp].[moe](G)[sp].[moe](G)[sp].d(C)[sp].d(A)[sp].d(T)[sp].d(A)[sp].d(G)[sp].d(C)[sp].d(A)[sp].d(G)[sp].d(C)[sp].[moe](A)[sp].[moe](G)}$$$$V2.0 | 55% and 51% | 
19 | RNA1{[moe](T)[sp].[moe](T)[sp].[moe](C)[sp].d(C)[sp].d(G)[sp].d(C)[sp].d(A)[sp].d(G)[sp].d(T)[sp].d(A)[sp].d(T)[sp].d(G)[sp].[moe](G)[sp].[moe](A)[sp].[moe](T)[sp].[moe](C)[sp].[moe](G)}$$$$V2.0 | 73% and 60% | 
20 | RNA1{[moe](A)[sp].[moe](G)[sp].[moe](A)[sp].[moe](G)[sp].[moe](G)[sp].d(T)[sp].d(G)[sp].d(A)[sp].d(A)[sp].d(G)[sp].d(C)[sp].d(G)[sp].d(A)[sp].d(A)[sp].[moe](G)[sp].[moe](T)[sp].[moe](G)}$$$$V2.0 | 64% and 55% | 
21 | RNA1{[moe](G)[sp].[cEt](G)[sp].d(T)[sp].d(G)[sp].d(A)[sp].d(A)[sp].d(G)[sp].d(C)[sp].d(G)[sp].d(A)[sp].d(A)[sp].d(G)[sp].[cEt](T)[sp].[moe](G)[sp].[cEt](C)[sp].[moe](A)}$$$$V2.0 | 80% and 81% | target mRNA inhibition (HepG2, 0.0092593 µM): 22%; target mRNA inhibition (HepG2, 0.0277778 µM): 51%; target mRNA inhibition (HepG2, 0.0833333 µM): 82%; target mRNA inhibition (HepG2, 0.25 µM): 88%
22 | RNA1{[moe](G)[sp].[moe](G)[sp].d(A)[sp].d(G)[sp].d(T)[sp].d(T)[sp].d(C)[sp].d(C)[sp].d(G)[sp].d(C)[sp].d(A)[sp].[moe](G)[sp].[moe](T)[sp].[moe](A)[sp].[moe](T)[sp].[moe](G)[sp].[moe](G)}$$$$V2.0 | 88% and 78% | 
23 | RNA1{[moe](G)[sp].[moe](G)[sp].[moe](T)[sp].[moe](G)[sp].d(A)[sp].d(A)[sp].d(G)[sp].d(C)[sp].d(G)[sp].d(A)[sp].d(A)[sp].d(G)[sp].d(T)[sp].[moe](G)[sp].[moe](C)[sp].[moe](A)[sp].[moe](C)}$$$$V2.0 | 63% and 59% | 
24 | RNA1{[moe](A)[sp].[moe](T)[sp].[moe](G)[sp].d(A)[sp].d(G)[sp].d(G)[sp].d(C)[sp].d(A)[sp].d(T)[sp].d(A)[sp].d(G)[sp].d(C)[sp].[moe](A)[sp].[moe](G)[sp].[moe](C)[sp].[moe](A)[sp].[moe](G)}$$$$V2.0 | 66% and 51% | 
25 | RNA1{[moe](A)[sp].[cEt](A)[sp].d(T)[sp].d(T)[sp].d(T)[sp].d(A)[sp].d(T)[sp].d(G)[sp].d(C)[sp].d(C)[sp].d(T)[sp].d(A)[sp].[cEt](C)[sp].[moe](A)[sp].[cEt](G)[sp].[moe](C)}$$$$V2.0 | 60% and 59% | 
26 | RNA1{[moe](G)[sp].[moe](A)[sp].[moe](G)[sp].d(A)[sp].d(A)[sp].d(G)[sp].d(T)[sp].d(C)[sp].d(C)[sp].d(A)[sp].d(C)[sp].d(C)[sp].d(A)[sp].[cEt](C)[sp].[cEt](G)[sp].[cEt](A)}$$$$V2.0 | 60% and 71% | 
27 | RNA1{[moe](C)[sp].[moe](C)[sp].[moe](A)[sp].d(C)[sp].d(T)[sp].d(G)[sp].d(A)[sp].d(A)[sp].d(C)[sp].d(A)[sp].d(A)[sp].d(A)[sp].[moe](T)[sp].[moe](G)[sp].[moe](G)[sp].[moe](C)}$$$$V2.0 | 69% | 
28 | RNA1{[moe](T)[sp].[moe](G)[sp].[moe](A)[sp].d(A)[sp].d(G)[sp].d(C)[sp].d(G)[sp].d(A)[sp].d(A)[sp].d(G)[sp].d(T)[sp].d(G)[sp].d(C)[sp].[cEt](A)[sp].[cEt](C)[sp].[cEt](A)}$$$$V2.0 | 67% and 70% | 
29 | RNA1{[moe](A)[sp].[moe](T)[sp].[moe](T)[sp].d(T)[sp].d(A)[sp].d(T)[sp].d(G)[sp].d(C)[sp].d(C)[sp].d(T)[sp].d(A)[sp].d(C)[sp].[moe](A)[sp].[moe](G)[sp].[moe](C)[sp].[moe](C)[sp].[moe](T)}$$$$V2.0 | 58% and 50% | 
30 | RNA1{[moe](C)[sp].[moe](A)[sp].[moe](G)[sp].d(A)[sp].d(G)[sp].d(G)[sp].d(T)[sp].d(G)[sp].d(A)[sp].d(A)[sp].d(G)[sp].d(C)[sp].[moe](G)[sp].[moe](A)[sp].[moe](A)[sp].[moe](G)[sp].[moe](T)}$$$$V2.0 | 63% and 50% | 
